Experimental data from ChEMBL document CHEMBL5325502, “Discovery of 2,4-diphenyl-substituted thiazole derivatives as PRMT1 inhibitors and investigation of their anti-cervical cancer effects” (Bioorg Med Chem, 2023).
pIC50: −log10 of the molar value. Active and inactive are the calls of the source. The rule behind the calls is not given here.

Assays:
[1] = biological target: T1, Protein arginine N-methyltransferase 1 (Homo sapiens, UniProt Q99873); experiment: Displacement of [3H]SAM from PRMT1 (unknown origin) at 10 uM preincubated for 15 mins followed by [3H]SAM addition measured after 60 mins by radiometric/luminescence based assay relative to control; conditions: time 75.0 min
Target sequence in this assay (Q99873 whole entry, looked up): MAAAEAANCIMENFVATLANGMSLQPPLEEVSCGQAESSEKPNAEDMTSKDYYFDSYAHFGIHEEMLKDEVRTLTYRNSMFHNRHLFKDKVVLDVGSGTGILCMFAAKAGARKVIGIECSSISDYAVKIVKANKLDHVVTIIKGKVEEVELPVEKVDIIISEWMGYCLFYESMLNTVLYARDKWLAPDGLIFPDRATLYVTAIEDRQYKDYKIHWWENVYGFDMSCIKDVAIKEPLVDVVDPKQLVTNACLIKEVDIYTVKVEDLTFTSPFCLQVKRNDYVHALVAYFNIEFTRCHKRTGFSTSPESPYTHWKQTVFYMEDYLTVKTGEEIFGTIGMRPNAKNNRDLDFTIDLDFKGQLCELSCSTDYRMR

HeLa [2] = experiment: Induction of apoptosis in human HeLa cells assessed as early apoptotic cells at 16 uM incubated for 24 hrs by flow cytometry (reference value: 28.2 %); format: functional
HeLa [3] = experiment: Inhibition of cell migration in human HeLa cells incubated at 24 hrs by crystal violet staining based transwell assay; format: functional; conditions: dose 2-8 µM
HeLa [4] = experiment: Induction of apoptosis in human HeLa cells assessed as early apoptotic cells at 8 uM incubated for 24 hrs by flow cytometry (reference value: 28.2 %); format: functional
HeLa [5] = experiment: Induction of apoptosis in human HeLa cells assessed as late apoptotic cells at 32 uM incubated for 24 hrs by flow cytometry (reference value: 4.37 %); format: functional
HepG2 = experiment: Antiproliferative activity against human HepG2 cells incubated for 48 hrs by CCK8 assay; format: functional, cell-based; conditions: HepG2, 48 h
HeLa [6] = experiment: Effect on SDMA expression in human HeLa cells at 2 to 8 uM incubated for 48 hrs by Western blot analysis; format: functional, cell-based; conditions: dose 2-8 µM
HeLa [7] = experiment: Effect on PRMT1 expression in human HeLa cells at 2 to 8 uM incubated for 48 hrs by Western blot analysis; format: functional, cell-based; conditions: dose 2-8 µM
HeLa [8] = experiment: Inhibition of cell migration in human HeLa cells incubated upto 48 hrs by scratch wound healing assay; format: functional, cell-based; conditions: dose 2-8 µM
HeLa [9] = experiment: Antiproliferative activity against human HeLa cells incubated for 48 hrs by CCK8 assay; format: functional, cell-based
HeLa [10] = experiment: Induction of apoptosis in human HeLa cells assessed as late apoptotic cells at 8 uM incubated for 24 hrs by flow cytometry (reference value: 4.37 %); format: functional
HeLa [11] = experiment: Induction of apoptosis in human HeLa cells assessed as viable cells at 32 uM incubated for 24 hrs by flow cytometry (reference value: 66.3 %); format: functional; conditions: read-out: Activity
HeLa [12] = experiment: Induction of apoptosis in human HeLa cells assessed as necrotic cells at 16 uM incubated for 24 hrs by flow cytometry (reference value: 1.10 %); format: functional
HeLa [13] = experiment: Downregulation of pro-caspase 9 expression in human HeLa cells incubated for 48 hrs by Western blot analysis; format: functional, cell-based; conditions: dose 2-8 µM
HeLa [14] = experiment: Induction of early apoptosis in human HeLa cells assessed as nuclear fragmentation incubated for 24 hrs by hoechst staining based analysis; format: functional, cell-based; conditions: dose <= 32.0 µM
HeLa [15] = experiment: Induction of apoptosis in human HeLa cells assessed as viable cells at 8 uM incubated for 24 hrs by flow cytometry (reference value: 66.3 %); format: functional; conditions: read-out: Activity
HeLa [16] = experiment: Induction of apoptosis in human HeLa cells assessed as viable cells at 16 uM incubated for 24 hrs by flow cytometry (reference value: 66.3 %); format: functional; conditions: read-out: Activity
HeLa [17] = experiment: Downregulation of MMP2 expression in human HeLa cells incubated for 48 hrs by Western blot analysis; format: functional, cell-based; conditions: dose 2-8 µM
HeLa [18] = experiment: Downregulation of ADMA expression in human HeLa cells incubated for 48 hrs by Western blot analysis; format: functional, cell-based; conditions: dose 2-8 µM
[19] = biological target: Protein arginine N-methyltransferase 5 (Homo sapiens) (UniProt O14744); experiment: Inhibition of PRMT5 (unknown origin) using SAM as substrate incubated for 60 mins by chemiluminescence based assay
Protein arginine N-methyltransferase 5 (Homo sapiens), sequence (O14744 whole entry): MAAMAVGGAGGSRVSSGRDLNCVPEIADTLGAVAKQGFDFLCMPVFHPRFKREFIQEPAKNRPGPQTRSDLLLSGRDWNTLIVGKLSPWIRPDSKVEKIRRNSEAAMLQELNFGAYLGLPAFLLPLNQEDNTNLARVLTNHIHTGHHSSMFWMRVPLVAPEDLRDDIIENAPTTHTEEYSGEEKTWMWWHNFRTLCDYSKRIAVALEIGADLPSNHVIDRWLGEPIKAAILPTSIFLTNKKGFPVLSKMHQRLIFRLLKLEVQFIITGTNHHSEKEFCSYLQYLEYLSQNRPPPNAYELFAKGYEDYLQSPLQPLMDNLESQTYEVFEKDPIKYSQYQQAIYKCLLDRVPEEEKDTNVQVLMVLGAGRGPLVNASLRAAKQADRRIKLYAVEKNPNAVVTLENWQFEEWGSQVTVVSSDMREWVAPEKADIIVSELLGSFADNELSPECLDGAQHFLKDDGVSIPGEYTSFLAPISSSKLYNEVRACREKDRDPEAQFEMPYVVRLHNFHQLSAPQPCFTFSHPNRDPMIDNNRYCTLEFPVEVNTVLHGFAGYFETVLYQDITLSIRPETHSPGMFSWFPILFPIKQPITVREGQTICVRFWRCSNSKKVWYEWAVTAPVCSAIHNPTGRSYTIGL

[20] = biological target: T1, Protein arginine N-methyltransferase 1; experiment: Displacement of [3H]SAM from PRMT1 (unknown origin) preincubated for 15 mins followed by [3H]SAM addition measured after 60 mins by radiometric/luminescence based assay
Target sequence in this assay (Q99873 whole entry): as the sequence (Q99873 whole entry, looked up) above

HeLa [21] = experiment: Induction of early apoptosis in human HeLa cells assessed as nuclear edge fusion incubated for 24 hrs by hoechst staining based analysis; format: functional, cell-based; conditions: dose <= 32.0 µM
HeLa [22] = experiment: Induction of early apoptosis in human HeLa cells assessed as dense nuclei incubated for 24 hrs by hoechst staining based analysis; format: functional, cell-based; conditions: dose <= 32.0 µM
HeLa [23] = experiment: Induction of apoptosis in human HeLa cells assessed as necrotic cells at 8 uM incubated for 24 hrs by flow cytometry (reference value: 1.10 %); format: functional
A549 = experiment: Antiproliferative activity against human A549 cells incubated for 48 hrs by CCK8 assay; format: functional, cell-based; conditions: A549, 48 h
HeLa [24] = experiment: Downregulation of N-Cadherin expression in human HeLa cells incubated for 48 hrs by Western blot analysis; format: functional, cell-based; conditions: dose 2-8 µM
HeLa [25] = experiment: Induction of apoptosis in human HeLa cells assessed as late apoptotic cells at 16 uM incubated for 24 hrs by flow cytometry (reference value: 4.37 %); format: functional
HeLa [26] = experiment: Induction of apoptosis in human HeLa cells assessed as early apoptotic cells at 32 uM incubated for 24 hrs by flow cytometry (reference value: 28.2 %); format: functional
MDA-MB-231 = experiment: Antiproliferative activity against human MDA-MB-231 cells incubated for 48 hrs by CCK8 assay; format: functional, cell-based; conditions: MDA-MB-231, 48 h
HeLa [27] = experiment: Induction of apoptosis in human HeLa cells assessed as necrotic cells at 32 uM incubated for 24 hrs by flow cytometry (reference value: 1.10 %); format: functional
HeLa [28] = experiment: Downregulation of DDAH expression in human HeLa cells at 2 to 8 uM incubated for 48 hrs by Western blot analysis; format: functional, cell-based; conditions: dose 2-8 µM
HeLa [29] = experiment: Induction of early apoptosis in human HeLa cells assessed as reduction in number of cells incubated for 24 hrs by hoechst staining based analysis; format: functional, cell-based; conditions: dose <= 32.0 µM

CNCCN(C)Cc1sc(-c2cccc(OC)c2)nc1-c1ccc(OC)cc1
inhibition [1]: 43%

CNCCN(C)Cc1sc(-c2cccc(OC(F)(F)F)c2)nc1-c1cccc(OC)c1
inhibition [1]: 31%

CNCCN(C)Cc1sc(-c2ccc(OC(F)(F)F)cc2)nc1-c1ccc(OC)cc1
inhibition [1]: 39%

CNCCN(C)Cc1sc(-c2ccc(OC)cc2)nc1-c1ccc(OC)cc1.Cl
Activity (HeLa [2]): 51.9% | inhibition (HeLa [3]): Dose-Dependent Effect | Activity (HeLa [4]): 35.9% | Activity (HeLa [5]): 22.9% | pIC50 (HepG2): 4.79 | Activity (HeLa [6]): inactive | Activity (HeLa [7]): inactive | inhibition (HeLa [8]): Dose-Dependent Effect | pIC50 (HeLa [9]): 5.03 | Activity (HeLa [10]): 6.65% | viability at 32 µM (HeLa [11]): 11.3% | Activity (HeLa [12]): 1.33% | Activity (HeLa [13]): Active | inhibition [1]: 60% | Activity (HeLa [14]): Dose-Dependent Effect | viability at 8 µM (HeLa [15]): 56.2% | viability at 16 µM (HeLa [16]): 29.3% | Activity (HeLa [17]): Dose-Dependent Effect | Activity (HeLa [18]): Dose-Dependent Effect | inhibition [19]: 2.52% | pIC50 [20]: 4.93 | Activity (HeLa [21]): Dose-Dependent Effect | Activity (HeLa [22]): Dose-Dependent Effect | Activity (HeLa [23]): 1.33% | pIC50 (A549): 4.74 | Activity (HeLa [24]): Dose-Dependent Effect | Activity (HeLa [25]): 17.5% | Activity (HeLa [26]): 64.8% | pIC50 (MDA-MB-231): 4.77 | Activity (HeLa [27]): 0.97% | Activity (HeLa [28]): Active | Activity (HeLa [29]): Dose-Dependent Effect

CNCCN(C)Cc1sc(-c2ccc(OC(F)(F)F)cc2)nc1-c1cccc(OC)c1
inhibition [1]: 35%

CNCCN(C)Cc1sc(-c2cccc(N3CCOCC3)c2)nc1-c1ccc(OC)cc1
inhibition [1]: 30%

CNCCN(C)Cc1sc(-c2cccc(OC(F)(F)F)c2)nc1-c1ccc(OC)cc1
inhibition [1]: 21%

CNCCN(C)Cc1sc(-c2ccc(N3CCOCC3)cc2)nc1-c1ccc(OC)cc1
pIC50 (HepG2): 4.70 | pIC50 (HeLa [9]): 4.71 | inhibition [1]: 56% | inhibition [19]: 6% | pIC50 [20]: 5.15 | pIC50 (A549): 4.47 | pIC50 (MDA-MB-231): 4.50

N=C(N)c1ccc(-c2ccc(-c3ccc(C(=N)N)cc3)o2)cc1
inhibition [1]: 98.1%

CNCCNCc1sc(-c2ccc(OC)cc2)nc1-c1ccc(OC)cc1
inhibition [1]: 7%
